Measured values taken from publication PMC10382584, “Macrocyclization of linear molecules by deep learning to facilitate macrocyclic drug candidates discovery” (Nature Communications, 2023).

How the values were obtained:
Test in all cases: biochemical
Set-up in all cases: DiscoveRx KINOMEscan competition binding, percent of DMSO control signal at 100 nM
Settings in all cases: read-out: Fig. 4a / Percent Control / Compound 1; percent of DMSO control, competition binding
PAK3 = PAK3 (Homo sapiens, UniProt O75914)
PYK2 = target: T1, PYK2 (Homo sapiens, UniProt Q14289)
T1 construct: gene PTK2B

ACVR1 = ACVR1 (Homo sapiens, UniProt Q04771)
ACVR1, sequence (Q04771 whole entry): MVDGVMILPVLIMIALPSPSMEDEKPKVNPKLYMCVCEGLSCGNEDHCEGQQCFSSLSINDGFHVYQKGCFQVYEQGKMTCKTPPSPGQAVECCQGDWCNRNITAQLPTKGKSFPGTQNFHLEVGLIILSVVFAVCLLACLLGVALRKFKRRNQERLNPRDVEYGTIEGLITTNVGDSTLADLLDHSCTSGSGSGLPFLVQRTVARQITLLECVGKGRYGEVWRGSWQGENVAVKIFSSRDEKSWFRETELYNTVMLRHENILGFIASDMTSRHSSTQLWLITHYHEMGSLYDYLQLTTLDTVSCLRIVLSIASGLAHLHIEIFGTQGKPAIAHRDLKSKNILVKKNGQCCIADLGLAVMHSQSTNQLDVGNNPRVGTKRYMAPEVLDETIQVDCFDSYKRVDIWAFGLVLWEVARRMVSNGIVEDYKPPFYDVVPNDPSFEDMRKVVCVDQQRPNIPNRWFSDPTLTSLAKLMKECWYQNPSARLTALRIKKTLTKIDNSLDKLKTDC

AMPK-alpha2 = target: T2, AMPK-alpha2 (Homo sapiens, UniProt P54646)
T2 construct: gene PRKAA2

FRK = FRK (Homo sapiens, UniProt P42685)
[1] = target: T3, ABL1(F317L)-phosphorylated (Homo sapiens, UniProt P00519, F317L)
T3 construct: phosphorylated

INSR = INSR (Homo sapiens, UniProt P06213)
ADCK4 = target: T4, ADCK4 (Homo sapiens, UniProt Q96D53)
T4 construct: gene COQ8B

TAOK2 = TAOK2 (Homo sapiens, UniProt Q9UL54)
TRKA = target: T5, TRKA (Homo sapiens, UniProt P04629)
T5 construct: gene NTRK1
T5 sequence (P04629 whole entry): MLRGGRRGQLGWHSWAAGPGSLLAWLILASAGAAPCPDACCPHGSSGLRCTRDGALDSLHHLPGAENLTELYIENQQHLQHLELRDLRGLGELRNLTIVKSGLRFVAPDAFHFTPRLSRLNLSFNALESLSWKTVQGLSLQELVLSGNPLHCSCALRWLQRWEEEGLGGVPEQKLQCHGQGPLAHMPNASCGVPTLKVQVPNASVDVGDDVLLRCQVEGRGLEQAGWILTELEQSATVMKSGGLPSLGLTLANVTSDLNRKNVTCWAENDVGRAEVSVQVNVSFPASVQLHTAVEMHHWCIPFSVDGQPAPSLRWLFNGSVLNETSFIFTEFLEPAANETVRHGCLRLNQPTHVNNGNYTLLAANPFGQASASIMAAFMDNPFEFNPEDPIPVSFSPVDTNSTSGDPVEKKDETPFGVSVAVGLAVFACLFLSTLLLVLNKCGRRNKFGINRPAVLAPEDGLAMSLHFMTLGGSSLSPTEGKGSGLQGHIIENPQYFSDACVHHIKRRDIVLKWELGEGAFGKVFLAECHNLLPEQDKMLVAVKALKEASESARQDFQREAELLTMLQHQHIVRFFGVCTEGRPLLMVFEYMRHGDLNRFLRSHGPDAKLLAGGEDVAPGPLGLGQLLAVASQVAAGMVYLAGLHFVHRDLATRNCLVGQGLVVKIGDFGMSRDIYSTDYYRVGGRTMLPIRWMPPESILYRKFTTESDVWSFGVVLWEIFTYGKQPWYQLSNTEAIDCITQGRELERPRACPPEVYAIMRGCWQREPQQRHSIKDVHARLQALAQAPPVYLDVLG

PKAC-alpha = target: T6, PKAC-alpha (Homo sapiens, UniProt P17612)
T6 construct: gene PRKACA

NEK7 = NEK7 (Homo sapiens, UniProt Q8TDX7)
CDK4 = CDK4 (Homo sapiens, UniProt P11802)
IKK-beta = target: T7, IKK-beta (Homo sapiens, UniProt O14920)
T7 construct: gene IKBKB
T7 sequence (O14920 whole entry): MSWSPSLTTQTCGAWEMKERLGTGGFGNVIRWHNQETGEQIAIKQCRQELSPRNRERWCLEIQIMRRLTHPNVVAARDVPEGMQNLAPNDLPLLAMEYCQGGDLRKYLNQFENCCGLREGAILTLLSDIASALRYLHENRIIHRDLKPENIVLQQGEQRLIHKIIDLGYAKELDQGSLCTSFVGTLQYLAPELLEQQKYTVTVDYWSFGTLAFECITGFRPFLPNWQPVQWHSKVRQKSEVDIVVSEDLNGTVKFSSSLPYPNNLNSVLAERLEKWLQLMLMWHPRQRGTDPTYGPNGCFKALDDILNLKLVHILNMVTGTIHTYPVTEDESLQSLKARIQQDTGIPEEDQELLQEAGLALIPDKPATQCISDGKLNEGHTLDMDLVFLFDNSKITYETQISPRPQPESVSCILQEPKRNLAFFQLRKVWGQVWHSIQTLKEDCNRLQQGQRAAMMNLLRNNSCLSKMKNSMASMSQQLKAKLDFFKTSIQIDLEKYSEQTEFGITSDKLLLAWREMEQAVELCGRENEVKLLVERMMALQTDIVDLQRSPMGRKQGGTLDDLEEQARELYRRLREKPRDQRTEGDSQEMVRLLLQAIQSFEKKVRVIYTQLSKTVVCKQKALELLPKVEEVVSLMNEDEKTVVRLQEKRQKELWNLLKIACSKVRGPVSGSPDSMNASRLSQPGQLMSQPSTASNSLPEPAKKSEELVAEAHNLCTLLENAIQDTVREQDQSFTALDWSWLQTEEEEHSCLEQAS

WNK4 = WNK4 (Homo sapiens, UniProt Q96J92)
WNK4, sequence (Q96J92 whole entry): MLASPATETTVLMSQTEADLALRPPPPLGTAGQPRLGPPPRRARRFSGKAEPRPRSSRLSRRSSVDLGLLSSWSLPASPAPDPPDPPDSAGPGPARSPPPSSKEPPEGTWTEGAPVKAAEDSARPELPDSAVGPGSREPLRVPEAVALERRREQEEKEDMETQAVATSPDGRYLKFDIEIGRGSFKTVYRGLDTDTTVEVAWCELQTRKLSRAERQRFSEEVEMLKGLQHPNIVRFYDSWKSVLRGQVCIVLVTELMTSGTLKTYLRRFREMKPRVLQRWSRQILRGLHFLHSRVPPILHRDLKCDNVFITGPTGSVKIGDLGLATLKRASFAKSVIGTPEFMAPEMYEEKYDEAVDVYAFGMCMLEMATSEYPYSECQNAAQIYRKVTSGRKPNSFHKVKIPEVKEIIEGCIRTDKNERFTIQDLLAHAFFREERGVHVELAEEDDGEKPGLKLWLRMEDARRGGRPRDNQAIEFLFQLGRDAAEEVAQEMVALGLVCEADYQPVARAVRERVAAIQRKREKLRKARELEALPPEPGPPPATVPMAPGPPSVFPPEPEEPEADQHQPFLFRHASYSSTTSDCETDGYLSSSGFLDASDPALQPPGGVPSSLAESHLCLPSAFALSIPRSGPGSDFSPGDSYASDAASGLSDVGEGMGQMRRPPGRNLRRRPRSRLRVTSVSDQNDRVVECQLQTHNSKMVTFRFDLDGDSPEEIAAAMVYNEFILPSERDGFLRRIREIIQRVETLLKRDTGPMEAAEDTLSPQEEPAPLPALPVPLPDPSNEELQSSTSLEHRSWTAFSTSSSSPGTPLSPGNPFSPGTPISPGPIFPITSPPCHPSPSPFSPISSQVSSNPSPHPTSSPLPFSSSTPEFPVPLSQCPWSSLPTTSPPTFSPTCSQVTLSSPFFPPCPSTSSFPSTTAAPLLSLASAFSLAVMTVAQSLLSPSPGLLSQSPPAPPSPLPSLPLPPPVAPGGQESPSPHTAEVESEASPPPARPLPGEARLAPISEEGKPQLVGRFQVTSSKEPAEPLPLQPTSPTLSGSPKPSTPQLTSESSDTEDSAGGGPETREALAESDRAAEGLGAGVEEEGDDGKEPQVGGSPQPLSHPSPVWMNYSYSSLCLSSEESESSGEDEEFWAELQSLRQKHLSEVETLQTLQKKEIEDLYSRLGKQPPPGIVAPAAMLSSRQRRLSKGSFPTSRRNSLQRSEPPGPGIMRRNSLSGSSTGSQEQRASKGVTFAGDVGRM

PAK7 = target: T8, PAK7 (Homo sapiens, UniProt Q9P286)
T8 construct: gene PAK5

SLK = SLK (Homo sapiens, UniProt Q9H2G2)
SLK, sequence (Q9H2G2 whole entry): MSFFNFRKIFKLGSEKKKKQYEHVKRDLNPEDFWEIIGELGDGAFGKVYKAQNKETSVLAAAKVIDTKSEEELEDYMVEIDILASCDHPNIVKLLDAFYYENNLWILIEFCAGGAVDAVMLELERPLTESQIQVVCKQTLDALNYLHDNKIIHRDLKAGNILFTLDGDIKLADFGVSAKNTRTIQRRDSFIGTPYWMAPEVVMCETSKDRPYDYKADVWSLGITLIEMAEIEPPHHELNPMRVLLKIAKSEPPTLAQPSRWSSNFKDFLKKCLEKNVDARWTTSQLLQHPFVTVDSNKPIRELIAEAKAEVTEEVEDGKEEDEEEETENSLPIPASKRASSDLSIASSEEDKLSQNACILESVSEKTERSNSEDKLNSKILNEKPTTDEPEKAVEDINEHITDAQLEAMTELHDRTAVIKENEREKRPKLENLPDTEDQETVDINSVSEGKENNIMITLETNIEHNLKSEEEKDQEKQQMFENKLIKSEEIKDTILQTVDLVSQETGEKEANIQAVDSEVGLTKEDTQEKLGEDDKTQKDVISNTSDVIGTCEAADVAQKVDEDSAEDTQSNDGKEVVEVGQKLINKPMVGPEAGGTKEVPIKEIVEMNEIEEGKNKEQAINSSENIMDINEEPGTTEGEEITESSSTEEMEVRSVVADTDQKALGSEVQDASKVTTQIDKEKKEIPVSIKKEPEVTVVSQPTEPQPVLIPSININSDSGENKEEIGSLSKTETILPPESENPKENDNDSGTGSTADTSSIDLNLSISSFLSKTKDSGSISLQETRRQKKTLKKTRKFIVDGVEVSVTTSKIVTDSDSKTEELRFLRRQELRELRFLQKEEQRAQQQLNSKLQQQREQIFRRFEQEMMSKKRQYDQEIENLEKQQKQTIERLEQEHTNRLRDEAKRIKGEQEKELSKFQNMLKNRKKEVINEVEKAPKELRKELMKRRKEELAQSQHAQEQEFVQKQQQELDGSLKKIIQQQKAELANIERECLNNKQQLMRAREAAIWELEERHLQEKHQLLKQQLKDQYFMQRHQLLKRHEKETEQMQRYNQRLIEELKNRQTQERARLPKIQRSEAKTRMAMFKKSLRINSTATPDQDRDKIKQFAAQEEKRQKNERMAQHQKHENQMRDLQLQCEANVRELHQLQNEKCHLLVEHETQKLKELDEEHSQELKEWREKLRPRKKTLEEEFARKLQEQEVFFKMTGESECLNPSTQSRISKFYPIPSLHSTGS

RET = RET (Homo sapiens, UniProt P07949)
MEK3 = target: T9, MEK3 (Homo sapiens, UniProt P46734)
T9 construct: gene MAP2K3

RIPK2 = RIPK2 (Homo sapiens, UniProt O43353)
RIPK2, sequence (O43353 whole entry): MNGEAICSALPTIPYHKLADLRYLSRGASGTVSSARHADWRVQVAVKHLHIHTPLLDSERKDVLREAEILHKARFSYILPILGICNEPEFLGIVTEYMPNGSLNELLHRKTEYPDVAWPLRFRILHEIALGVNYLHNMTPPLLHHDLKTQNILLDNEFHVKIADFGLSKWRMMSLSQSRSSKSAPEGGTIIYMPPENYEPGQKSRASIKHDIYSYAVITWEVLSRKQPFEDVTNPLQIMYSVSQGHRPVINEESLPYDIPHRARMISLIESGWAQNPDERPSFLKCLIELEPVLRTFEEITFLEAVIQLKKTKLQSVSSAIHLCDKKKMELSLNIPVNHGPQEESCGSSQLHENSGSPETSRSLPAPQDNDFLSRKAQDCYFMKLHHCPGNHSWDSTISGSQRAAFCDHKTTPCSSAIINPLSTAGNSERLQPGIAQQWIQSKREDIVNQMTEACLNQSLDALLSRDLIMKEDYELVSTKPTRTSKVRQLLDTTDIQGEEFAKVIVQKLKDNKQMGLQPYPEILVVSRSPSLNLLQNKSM

EPHB3 = EPHB3 (Homo sapiens, UniProt P54753)
WEE1 = WEE1 (Homo sapiens, UniProt P30291)
[2] = target: T10, RSK2(Kin.Dom.1-N-terminal) (Homo sapiens, UniProt P51812)
T10 construct: gene RPS6KA3; Kin.Dom.1-N-terminal

TYRO3 = TYRO3 (Homo sapiens, UniProt Q06418)
ALK = ALK (Homo sapiens, UniProt Q9UM73)
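Note: KINOMEscan kinase panel binding assay, signal normalized between DMSO as 100% and a positive control compound as 0%.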

Cc1cnc2nc1Nc1cccc(c1)COCc1cc(ccc1OCCN1CCCC1)N2 [Compound 1]
remaining binding at 0.1 µM (PAK3): 100% | remaining binding at 0.1 µM (PYK2): 82% | remaining binding at 0.1 µM (ACVR1): 92% | remaining binding at 0.1 µM (AMPK-alpha2): 97% | remaining binding at 0.1 µM (FRK): 84% | remaining binding at 0.1 µM [1]: 70% | remaining binding at 0.1 µM (INSR): 84% | remaining binding at 0.1 µM (ADCK4): 61% | remaining binding at 0.1 µM (TAOK2): 63% | remaining binding at 0.1 µM (TRKA): 26% | remaining binding at 0.1 µM (PKAC-alpha): 99% | remaining binding at 0.1 µM (NEK7): 72% | remaining binding at 0.1 µM (CDK4): 96% | remaining binding at 0.1 µM (IKK-beta): 97% | remaining binding at 0.1 µM (WNK4): 48% | remaining binding at 0.1 µM (PAK7): 84% | remaining binding at 0.1 µM (SLK): 70% | remaining binding at 0.1 µM (RET): 96% | remaining binding at 0.1 µM (MEK3): 76% | remaining binding at 0.1 µM (RIPK2): 99% | remaining binding at 0.1 µM (EPHB3): 100% | remaining binding at 0.1 µM (WEE1): 90% | remaining binding at 0.1 µM [2]: 56% | remaining binding at 0.1 µM (TYRO3): 55% | remaining binding at 0.1 µM (ALK): 79%
